{"source": "paper PMC8305076", "about": "“Comprehensive Evaluation of Biological Effects of Pentathiepins on Various Human Cancer Cell Lines and Insights into Their Mode of Action” (International Journal of Molecular Sciences, 2021)", "assay_type_in_all_cases": "cell-based, human", "key": {"[1]": {"system": "A2780", "test": "cell cycle analysis (PI staining)", "conditions": "IC90, 48 h", "method": "The potent cytotoxicity and the potential to inhibit the proliferation of cancer cells accompanied by DNA damage effects raised the question as to whether cell cycle progression might be affected as a result of treatment with pentathiepins.\nCells were harvested by trypsinization, collected in 1.5 mL tubes, and washed twice with PBS by centrifuging for 5 min at 500× g and discarding the supernatant after every step. For fixation, 500 µL of ice-cold ethanol (70%) was added dropwise under vortexing with a subsequent incubation on ice for 30 min. Then, the cells were centrifuged for 10 min at 4000 rpm and 4 °C, the supernatant was removed, and the cells were resuspended in 500 µL of PBS containing 25 µg/mL of PI and 100 µg/mL of RNase. The staining solution was incubated for 30 min, and the cell suspension was measured at λEx/Em = 488/655–730 nm using a MACSquant Analyzer 10 (Miltenyi Biotec, Teterow, Germany)."}, "[2]": {"system": "Siso", "test": "alkaline Comet assay", "conditions": "25 µM pentathiepin or 20 µM H2O2, 15 min, 0 °C", "excerpt": "Next, the potential of the pentathiepins 1–6 to damage nuclear DNA was investigated in the cell lines HAP-1, HAP-1.KO.GPx1, and Siso, with different expression levels of GPx1 and CAT (see Figure 7), by Comet Assay (Figure 12) with representative images in the Supplementary Materials (Figure S48).\nWith this assay, the intensity of DNA damage can be assessed on the level of a single cell, in case of the alkaline version detecting both single and double strand breaks as well as alkali-labile sites. The method presented here is an adaptation of the protocol published by Olive and Banath and based on the distinct electrophoretic mobility of damaged and intact genomic DNA. The latter has a low mobility; does thus not migrate in the electric field; and remains in a nucleoid shape after lysis, referred to as the comet head. In contrast, when strand breaks are created, free charged ends emerge and increase the electrophoretic mobility, prompting DNA segments to drift away from the comet head, thereby forming the so-called comet tail. As descriptor of still intact genomic DNA, the percentage of DNA in the comet head was selected. Per condition, 50,000 cells of either Siso, HAP-1, or HAP-1.KO.GPx1 were diluted in 1 mL of PBS and subsequently treated with either a 1% DMF aqueous solution as negative control, 20 µM of H2O2 as positive control, or 25 µM of pentathiepin for 15 min on ice to impair intracellular DNA repair mechanisms. Afterwards, 400 µL of the cell suspension was blended with 1.2 mL of a 1% low melting point agarose solution (40 °C) and smoothly distributed on agarose-precoated glass slides. Polymerization was finished after 3 min at RT, and the slides were horizontally submerged in alkaline lysis buffer (1.2 M NaCl, 0.1% N-lauryl-sarcosinate, 0.1 M Na-EDTA, 0.26 M NaOH) before storing them at 4 °C overnight. The slides were then rinsed three times in rinse/electrophoresis buffer (0.002 M Na-EDTA, 0.03 M NaOH) before electrophoretic separation was performed for 25 min at 0.6 V/cm. A neutralization step by adding distilled water was followed by staining the slides with 250 µL of an aqueous 10 µg/mL PI solution for 20 min. For visualization and image capturing, a DMi8 fluorescent microscope and LASX software (Leica Microsystems, Wetzlar, Germany) were used, and the comets scored with the help of CometScore2.0 (rexhoover.com). Per condition and replicate, at least 100 comets were analyzed to calculate a mean level of damage."}, "[3]": {"system": "YAPC", "test": "DCFDA flow cytometric ROS assay, acute", "conditions": "25 µM, 15 min", "method": "According to the hypothesized mechanism of action (see Figure 3), pentathiepins can create oxidative stress via generation of reactive sulfur precursors. We have previously reported that a representative pentathiepin can increase the intracellular levels of ROS in two cancer cell lines. This effect was thus further evaluated with the new compounds in seven cell lines (Figure 8). The cells were incubated for 15 min with 25.0 µM pentathiepin and subsequently analyzed by using the intracellular ROS sensor 2′,7′-dichlorodihydrofluorescein diacetate (DCFDA) by flow cytometry.\nIn order to quantify intracellular ROS, we performed a flow cytometric assay based on the ROS-sensor 2′,7′-dichlorofluorescein diacetate (DCFDA). For acute effects of pentathiepins on intracellular ROS levels, the cells were stained with DCFDA first and subsequently incubated with 25 µM of compound for 10 min. […] Per condition, 250,000 cells were seeded in 2 mL of medium per well of a 6-well plate and allowed to adhere overnight. For measurement of acute ROS, the cells were stained with 1 mL of a 20 µM DCFDA-PBS solution for 30 min under standard incubation conditions. Afterwards, the solution was discarded, and the monolayer washed twice with 1 mL of PBS before 3 mL of medium containing 25 µM of pentathiepin was added for 10 min at 37 °C. After removing the solution and washing again with PBS, the cells were detached by using 0.5 mL of a diluted trypsin/EDTA-PBS solution (25%) and harvested with 1 mL of culture medium by carefully rinsing the wells. The cell suspension was transferred to 1.5 mL tubes, centrifuged for 5 min at 500× g, and washed with 1 mL of PBS. After removing the supernatant, each pellet was resuspended in 0.5 mL of PBS for measurement via the MACSquant Analyzer 10 at λEx/Em = 488/530 nm. Relative ROS levels resulting from treatment with pentathiepin were calculated by relating the fluorescence intensity of treated samples to the negative control. For the experiments covering periods of 24 and 48 h, the cells were incubated with the compounds first and stained with DCFDA afterwards. To assess the influence of additional GSH, we included 3 or 30 µM GSH to the medium containing 25 µM of pentathiepin, and the protocol was followed as described."}}, "data": [{"smiles": "CCOc1c2c(c3ccc(C(=O)N4CCN(S(=O)(=O)c5ccc(C)cc5)CC4)cn13)SSSSS2", "note": "[Compound 6, (6-Ethoxy-[1,2,3,4,5]pentathiepino[6,7-a]indolizin-9-yl)(4-tosylpiperazinyl)methanone]", "values": [{"measurement": "relative amount of sub G1-phase cells", "setting": "[1]", "value": 30, "unit": "%"}]}, {"smiles": "CCOc1c2c(c3ccc(C(=O)N4CCCCC4)cn13)SSSSS2", "note": "[Compound 2, (6-Ethoxy-[1,2,3,4,5]pentathiepino[6,7-a]indolizin-9-yl)(piperidinyl)methanone]", "values": [{"measurement": "intact genomic DNA (Comet head)", "setting": "[2]", "value": 30, "unit": "%"}]}, {"smiles": "CCOc1c2c(c3ccc(C(=O)N4CCN(C(=O)c5ccc(F)cc5)CC4)cn13)SSSSS2", "note": "[Compound 5, (6-Ethoxy-[1,2,3,4,5]pentathiepino[6,7-a]indolizin-9-yl)(4-(4-fluorobenzoyl)piperazinyl)methanone]", "values": [{"measurement": "intracellular ROS levels", "setting": "[3]", "value": "the only increase was monitored after incubation with 5"}]}]}
